This assay deals with T1, wt human LRRK2, catalytic site (Homo sapiens, UniProt Q5S007).
T1 construct: wt human LRRK2, catalytic site; purchased ThermoFisher/USA
Put plainly: TR-FRET LanthaScreen Tb Kinase Activity Assay (Example 71). The format is biochemical. The conditions noted are these: compounds of Table 4, 38 uM ATP, method names only wt human LRRK2, read-out: IC50, Inhibitory Activity Toward LRRK2 (Wt) and LRRK2 (G2019). On the procedure: The compounds in Table 4 were tested for their inhibitory effect on LRRK2 kinases according to the following procedures.
The basic protocol for TR-FRET LanthaScreen Tb Kinase Activity Assay inhibitor studies were performed as follows. LanthaScreen Kinase Activity Assays (ThermoFisher/USA) to evaluate inhibitors were performed by addition of 100 nl of test compound in corresponding DMSO dilutions/5 μl of kinase/fluorescein-ERM(LRRKtide) peptide mixture, 5 μl of ATP into 384 well small volume plates. After incubation for 120 minutes at room temperature, the detection reagents containing Tb-anti-pLRRKtide antibody were added to monitor phosphrylation level of peptide. Then, after 60 min minutes incubation at room temperature plates were read in Envision. Data analysis of emission ratios was according to LanthaScreen Tb Kinase Activity Assay protocol.
Kinase and assay components were adjusted to final concentrations according to the kit protocol. For LRRK2: 2 nM wt human LRRK2, catalytic site, catalytic site (ThermoFisher/USA), 400 nM peptide, 38 uM ATP in 1× Kinase Buffer A.
Basic protocol for TR-FRET LanthaScreen Tb Kinase Activity Assay inhibitor studies involved two steps:
Enzymatic step: Addition of 100 nl of test compound in corresponding DMSO dilutions, 5 μl of kinase/substrate mixture, 5 μl of ATP into 384 well small volume plates. Incubation for 120 minutes at room temperature.
Detection step: Addition of 10 μl EDTA & antibody, read plate after 60 minutes. Data analysis of emission ratios according to KinEASE assay protocol.
For orientation: In TR-FRET formats the signal depends on donor and acceptor labels being close together.

Usually IC50 stands for the point on the concentration scale where inhibition reaches its midpoint.

Molecules are shown by their SMILES.

T1 sequence (Q5S007 1879-2138 limits assumed): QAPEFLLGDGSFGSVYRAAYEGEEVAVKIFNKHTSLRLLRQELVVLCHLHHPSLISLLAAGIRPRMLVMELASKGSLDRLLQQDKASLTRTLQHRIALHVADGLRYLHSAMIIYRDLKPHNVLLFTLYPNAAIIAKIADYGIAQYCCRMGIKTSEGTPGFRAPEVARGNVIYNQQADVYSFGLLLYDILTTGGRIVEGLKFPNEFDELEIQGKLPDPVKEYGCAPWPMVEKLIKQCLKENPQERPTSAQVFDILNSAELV

On to `Fc1cncc(F)c1C1=Nc2cn[nH]c2-c2cnn3c2N1CCC3` [Compound 376, 8-(3,5-difluoro-4-pyridyl)-3,4,7,9,13,14-hexazatetracyclo[7.6.1.02,6.013,16]hexadeca-1(16),2(6),4,7,14-pentaene], for which the IC50 lay in the range of 0.01 to 0.1 µM.

Turning to `Fc1cccc(F)c1C1=Nc2cn[nH]c2-c2cnn3c2N1CC1(CC1)C3` [Compound 377, 9-(2,6-difluorophenyl)-6,8-dihydro-3H-spiro[2,3,5,5a,8a,10-hexaazabenzo[cd]cyclopenta[h]azulene-7,1′-cyclopropane]], the IC50 was 0.1 to 1 µM.

Consider `Cc1cccc(C)c1C1=Nc2cn[nH]c2-c2cnn3c2N1CCC3` [Compound 379, 8-(2,6-dimethylphenyl)-3,4,7,9,13,14-hexazatetracyclo[7.6.1.02,6.013,16]hexadeca-1(16),2(6),4,7,14-pentaene], for which the IC50 was 0.1 to 1 µM.

Turning to `Fc1cccc(C(F)(F)F)c1C1=Nc2cn[nH]c2-c2cnn3c2N1CCC3` [Compound 380, 8-[2-fluoro-6-(trifluoromethyl)phenyl]-3,4,7,9,13,14-hexazatetracyclo[7.6.1.02,6.013,16]hexadeca-1(16),2(6),4,7,14-pentaene], the IC50 was 0.01 to 0.1 µM.

With `Fc1cccc(C(F)F)c1C1=Nc2cn[nH]c2-c2cnn3c2N1CCC3` [Compound 381, 8-[2-(difluoromethyl)-6-fluoro-phenyl]-3,4,7,9,13,14-hexazatetracyclo[7.6.1.02,6.013,16]hexadeca-1(16),2(6),4,7,14-pentaene], the IC50 lay within 0.01 to 0.1 µM.

On to `Cc1cccc(F)c1C1=Nc2cn[nH]c2-c2cnn3c2N1CC3` [Compound 382, 8-(2-fluoro-6-methyl-phenyl)-3,4,7,9,12,13-hexazatetracyclo[7.5.1.02,6.012,15]pentadeca-1(15),2(6),4,7,13-pentaene], for which the IC50 was less than 0.01 µM.

Take `Fc1cccc(Cl)c1C1=Nc2cn[nH]c2-c2cnn3c2N1CC3` [Compound 383, 8-(2-chloro-6-fluoro-phenyl)-3,4,7,9,12,13-hexazatetracyclo[7.5.1.02,6.012,15]pentadec-1(15),2(6),4,7,13-pentaen]: the IC50 was less than 0.01 µM.

As to `Fc1cc(OC(F)F)cc(F)c1C1=Nc2cn[nH]c2-c2cc(C(F)(F)F)cc3[nH]cc1c23` [Compound 384, 3-(4-(difluoromethoxy)-2,6-difluorophenyl)-9-(trifluoromethyl)-1,7-dihydropyrazolo[3′,4′:6,7]azepino[3,4,5-cd]indole], the IC50 fell in the range of 0.01 to 0.1 µM.

With `Fc1cc(Cl)cc(F)c1C1=Nc2cn[nH]c2-c2cnn3c2N1CCC3` [Compound 385, 9-(4-chloro-2,6-difluorophenyl)-3,6,7,8-tetrahydro-2,3,5,5a,8a,10-hexaazabenzo[cd]cyclopenta[h]azulene], the IC50 was in the range of 0.01 to 0.1 µM.

Take `Fc1cncc(F)c1C1=Nc2c(Cl)n[nH]c2-c2cnn3c2N1CCC3` [Compound 386, 1-chloro-9-(3,5-difluoropyridin-4-yl)-3,6,7,8-tetrahydro-2,3,5,5a,8a,10-hexaazabenzo[cd]cyclopenta[h]azulene]: the IC50 fell in the range of 0.01 to 0.1 µM.

Take `Fc1cc(F)c(C2=Nc3cn[nH]c3-c3cnn4c3N2CC4)c(F)c1` [Compound 387, 3-(2,4,6-trifluorophenyl)-2,7-dihydro-1H-2a,4,6,7,9,9a-hexaazadicyclopenta[cd,f]azulene]: the IC50 was less than 0.01 µM.

As for `Fc1cc(Cl)cc(F)c1C1=Nc2cn[nH]c2-c2cnn3c2N1CC3` [Compound 388, 3-(4-chloro-2,6-difluorophenyl)-2,7-dihydro-1H-2a,4,6,7,9,9a-hexaazadicyclopenta[cd,f]azulene], the IC50 lay in the range of 0.01 to 0.1 µM.

Consider `Fc1ccc(Br)c(F)c1C1=Nc2cn[nH]c2-c2cnn3c2N1CC3` [Compound 389, 3-(3-bromo-2,6-difluorophenyl)-2,7-dihydro-1H-2a,4,6,7,9,9a-hexaazadicyclopenta[cd,f]azulene], for which the IC50 was less than 0.01 µM.

`Fc1ccc(Cl)c(F)c1C1=Nc2cn[nH]c2-c2cnn3c2N1CC3` [Compound 390, 3-(3-chloro-2,6-difluorophenyl)-2,7-dihydro-1H-2a,4,6,7,9,9a-hexaazadicyclopenta[cd,f]azulene]: the concentration for half-maximal inhibition (IC50) is less than 0.01 µM.

In the case of `Cc1n[nH]c2c1N=C(c1c(F)ccc(Br)c1F)N1CCn3ncc-2c31` [Compound 391, 3-(3-bromo-2,6-difluorophenyl)-5-methyl-2,7-dihydro-1H-2a,4,6,7,9,9a-hexaazadicyclopenta[cd,f]azulene], the 50% inhibitory concentration (IC50) was less than 0.01 µM.

As for `Fc1ccc(Br)c(Cl)c1C1=Nc2cn[nH]c2-c2cnn3c2N1CC3` [Compound 392, 3-(3-bromo-2-chloro-6-fluorophenyl)-2,7-dihydro-1H-2a,4,6,7,9,9a-hexaazadicyclopenta[cd,f]azulene], the IC50 was less than 0.01 µM.

Consider `Fc1cccc(Br)c1C1=Nc2cn[nH]c2-c2cnn3c2N1CC3` [Compound 393, 3-(2-bromo-6-fluorophenyl)-2,7-dihydro-1H-2a,4,6,7,9,9a-hexaazadicyclopenta[cd,f]azulene], for which the IC50 fell in the range of 0.01 to 0.1 µM.

In the case of `N#Cc1ccc(F)c(C2=Nc3cn[nH]c3-c3cnn4c3N2CC4)c1F` [Compound 394, 3-(2,7-dihydro-1H-2a,4,6,7,9,9a-hexaazadicyclopenta[cd,f]azulen-3-yl)-2,4-difluorobenzonitrile], the concentration for half-maximal inhibition (IC50) was less than 0.01 µM.

As for `Cc1n[nH]c2c1N=C(c1c(F)cccc1Cl)N1CCn3ncc-2c31` [Compound 395, 3-(2-chloro-6-fluorophenyl)-5-methyl-2,7-dihydro-1H-2a,4,6,7,9,9a-hexaazadicyclopenta[cd,f]azulene], the IC50 was less than 0.01 µM.

In the case of `Cc1ccc(F)c(C2=Nc3c(C)n[nH]c3-c3cnn4c3N2CCC4)c1F` [Compound 396, 9-(2,6-difluoro-3-methylphenyl)-1-methyl-3,6,7,8-tetrahydro-2,3,5,5a,8a,10-hexaazabenzo[cd]cyclopenta[h]azulene], the IC50 is less than 0.01 µM.

Regarding `Cc1n[nH]c2c1N=C(c1c(F)ccc(C#N)c1F)N1CCCn3ncc-2c31` [Compound 397, 2,4-difluoro-3-(1-methyl-3,6,7,8-tetrahydro-2,3,5,5a,8a,10-hexaazabenzo[cd]cyclopenta[h]azulen-9-yl)benzonitrile], the IC50 is less than 0.01 µM.

For `Cc1n[nH]c2c1N=C(c1c(F)cc(OC(F)F)cc1F)N1CCn3ncc-2c31` [Compound 398], the IC50 was less than 0.01 µM.

Take `Fc1ccc(C2CC2)c(F)c1C1=Nc2cn[nH]c2-c2cnn3c2N1CC3` [Compound 399, 3-(3-cyclopropyl-2,6-difluorophenyl)-2,7-dihydro-1H-2a,4,6,7,9,9a-hexaazadicyclopenta[cd,f]azulene]: the IC50 is less than 0.01 µM.

Regarding `Cc1n[nH]c2c1N=C(c1c(F)cccc1F)c1c[nH]c3cc(Cl)cc-2c13` [Compound 400, 9-chloro-3-(2,6-difluorophenyl)-5-methyl-1,7-dihydropyrazolo[3′,4′:6,7]azepino[3,4,5-cd]indole], the IC50 was less than 0.01 µM.

For the compound `Fc1cccc(F)c1C1=Nc2cn[nH]c2-c2cc(C(F)(F)F)cc3[nH]cc1c23` [Compound 401, 3-(2,6-difluorophenyl)-9-(trifluoromethyl)-1,7-dihydropyrazolo[3′,4′:6,7]azepino[3,4,5-cd]indole], the IC50 is less than 0.01 µM.

In the case of `Fc1cc(Cl)cc(F)c1C1Nc2cn[nH]c2-c2cnn3c2N1CCC3` (stereo not shown) [Compound 402, 9-(4-chloro-2,6-difluorophenyl)-3,6,7,8,9,10-hexahydro-2,3,5,5a,8a,10-hexaazabenzo[cd]cyclopenta[h]azulene], the IC50 was 0.1 to 1 µM.

Regarding `Fc1cc2ncccc2c(F)c1C1=Nc2cn[nH]c2-c2cnn3c2N1CC3` [Compound 404, 3-(5,7-difluoroquinolin-6-yl)-2,7-dihydro-1H-2a,4,6,7,9,9a-hexaazadicyclopenta[cd,f]azulene], the IC50 fell in the range of 0.01 to 0.1 µM.

As to `N#Cc1ccc(F)c(C2=Nc3cn[nH]c3-c3cc(C(F)(F)F)cc4[nH]cc2c34)c1F` [Compound 405, 2,4-difluoro-3-(9-(trifluoromethyl)-1,7-dihydropyrazolo[3′,4′:6,7]azepino[3,4,5-cd]indol-3-yl)benzonitrile], the IC50 was less than 0.01 µM.

Take `OCc1cc(F)c(C2=Nc3cn[nH]c3-c3cc(C(F)(F)F)cc4[nH]cc2c34)c(F)c1` [Compound 406, (3,5-difluoro-4-(9-(trifluoromethyl)-1,7-dihydropyrazolo[3′,4′:6,7]azepino[3,4,5-cd]indol-3-yl)phenyl)methanol]: the IC50 was less than 0.01 µM.

For the compound `OCc1ccc(F)c(C2=Nc3cn[nH]c3-c3cc(C(F)(F)F)cc4[nH]cc2c34)c1F` [Compound 407, (2,4-difluoro-3-(9-(trifluoromethyl)-1,7-dihydropyrazolo[3′,4′:6,7]azepino[3,4,5-cd]indol-3-yl)phenyl)methanol], the IC50 is less than 0.01 µM.

Take `COc1cc(F)c(C2=Nc3cn[nH]c3-c3cc(C(F)(F)F)cc4[nH]cc2c34)c(F)c1` [Compound 408]: the IC50 fell in the range of 0.01 to 0.1 µM.

Values taken from patent US20240067655A1 (NEURON23, INC., priority 2020, published 2024).
